Measured values published in a melting point compilation (Tetko et al.; mined from patent text by program, amines drawn as free bases though some values may be those of a salt).

Structure (SMILES)	melting point
CN1CC(c2cccc(Cl)c2)C(=O)C(c2cccc(Cl)c2)C1 (centres undefined)	140 °C
CCOC(=O)c1ccc(N)c(I)c1	71 to 74 °C
O=C(O)c1cn(C2CC2)c2nc3cc(N4CCNC(c5ccco5)C4)c(F)cc3cc2c1=O (racemic)	240 to 241 °C
Cc1ncc2n1-c1ccccc1C(c1ccccc1)=NC2	180 to 182 °C
CC(=O)NCC(=NNC(N)=S)c1ccccc1	208 to 211 °C
NC(=O)CNc1c(F)cc([N+](=O)[O-])cc1F	160 to 162 °C
CC(C)c1ccc(C(=O)NNC(=O)c2ccc(C(=O)O)cc2)cc1	235 to 237 °C
COc1ccc2c(c1)c(C=C1SC(=S)N(CC(=O)O)C1=O)c(C)n2C(=O)c1ccc(Cl)cc1	204 to 208 °C
COc1cccc(OC)c1C(=O)Nc1nnc(C(C)(C)CSC)s1	165 to 167 °C
CN1CC(CCO)N2c3ccccc3Oc3ccccc3C2C1 (centres undefined)	138 to 139 °C
Cc1nc2c(Cl)nccc2n1C	197 to 198 °C
CNC(=O)Cc1cccc2ccoc12	138 to 142 °C
CC(OC1CCCCO1)C(O)(Cn1cncn1)c1ccc(F)cc1F (centres undefined)	93 to 95 °C
Cc1cc2c(s1)CNCC2O (centres undefined)	120 °C
O=C(O)c1csc2ccc(O)cc12	262 to 263 °C
CSC1=Nc2ccncc2S(=O)(=O)N1C	135 to 138 °C
O=C(O)c1ccc(Cc2cc3cc(C(F)(F)F)ccc3n2S(=O)(=O)c2cccc(C3CC3)c2)cc1	147 °C
COC1=C(OC)C(=O)C(CCCCCCCCCCCCC(=O)O)=C(C)C1=O	62 °C
COc1cc(OC)nc(NC(=O)NS(=O)(=O)Nc2ccccc2C(O)C2CC2)n1 (centres undefined)	66 to 69 °C

Structure (SMILES)	melting point
CCCC(NS(N)(=O)=O)C(=O)OC (centres undefined)	63 to 64 °C
C[C@]1(CN2CC=C(c3ccccc3)CC2)Cn2cc([N+](=O)[O-])nc2O1	200 to 201 °C
C=C1C(O)C2(O)OCC34C(CC5C(C)=CC(=O)C(O)C5(C)C23)OC(=O)CC14 (centres undefined)	235 to 237 °C
CCNc1cc(NS(=O)(=O)c2ccc(C(C)(C)C)cc2)nc(NCC)n1	316 to 318 °C
C=CCC(=CC(N)C(=O)O)CP(=O)(O)O (centres undefined)	154 to 157 °C
CCC1c2c([nH]c(=O)c(O)cc2=O)CC(Cl)C1Cl (centres undefined)	197 °C
CCOc1cn(C)c2nc3cc(F)c(F)cc3cc2c1=O	> 270 °C
CC(CC(O)(C(=O)O)C(F)(F)F)c1ccccc1 (centres undefined)	145 to 146 °C
CCOC(=O)[C@H]1C2C[C@@H](O)[C@](O)(C(=O)OCc3ccccc3)[C@@H]21 (some centres undefined)	112 to 114 °C
CC(=O)Nc1cc(N)cc([N+](=O)[O-])c1	204 to 205 °C
OC1CCN(c2ncc(-c3ccc(Cl)cc3Cl)cn2)CC1	122 to 124 °C
CC(C)C(NC(=O)Cn1cccc(NC(=O)Nc2ccccc2)c1=O)C(=O)C(F)(F)F (centres undefined)	94 to 106 °C
O=C(C1CC1)N1CC2CC2(c2ccccc2)C1 (centres undefined)	164 to 165 °C
CN(C)Cc1cc(C(=O)c2ccc(F)cc2)cc(C(C)(C)C)c1O	112 to 113 °C
O=C(NC(CO)CO)c1cccc(-c2ccc3c(c2)C(c2ccc(Cl)cc2Cl)CC3)c1 (centres undefined)	135 to 157 °C
C=C(F)C(=O)Oc1c(I)cc(C(F)(F)F)cc1I	93 to 95 °C
CSc1c(C(=O)O)ccc(F)c1F	149 to 150 °C
COC(=O)c1cccc2nc(N)sc12	232 to 233 °C
Nc1cc(O)nn1-c1c(Cl)cc(Cl)cc1Cl	221 to 223 °C

Now from value to molecule:

melting point	Structure (SMILES)
154 to 155 °C	COc1ccc(-c2cc(=O)c3cc(OCCCCCN4CCC(O)CC4)ccc3o2)cc1OC
152 °C	O=C1OC(c2ccccc2)CCN1Cc1ccccc1NS(=O)(=O)C(F)(F)F (centres undefined)
154 to 155 °C	COc1nc(C)nc(NC(=O)NS(=O)(=O)c2ccccc2C=CC(F)(F)F)n1
227 °C	N#Cc1ccc(-c2ccc(O)c(C(=O)O)c2)cc1
107 to 112 °C	CCCCOC(=O)c1ccc2cc(O)ccc2c1
128 °C	OC1CCCc2nc3ccccc3c(NCc3cccc(F)c3)c21 (centres undefined)
93 to 95 °C	CC(C)n1nc(-c2ccccc2)c(-c2ccc(F)cc2)c1CBr
155 to 156 °C	CC(C)(C)c1ccc(CCC(=O)C2CCCCCC2)cc1NC(=O)CC1c2ccccc2Oc2ccccc21
95 to 97 °C	CCCc1c(OCC(=O)NCCCCc2cccnc2)ccc(C(C)=O)c1O
75.6 to 78.9 °C	COc1cccc(C(=O)C=Cc2ccc(OC)cc2OC)c1
184 to 185 °C	CCOC(=O)c1cc(C)cc(-c2ccc(NC(=O)OCc3ccccc3)cc2)n1
180 to 182 °C	O=C1Nc2ccccc2C12COc1cc(OC(F)(F)F)ccc12 (centres undefined)
194 to 196 °C	Fc1cccc(F)c1-c1cccnc1
88 to 89 °C	CCOC(=O)c1cccc2oc(C=O)cc12
278 to 280 °C	CC(=O)Nc1ccc(Cn2cnc3c(-c4ccco4)ncnc32)cc1
116 to 117 °C	Cc1oc(-c2ccccc2)nc1CCOc1ccc(/C=C/C#N)cn1
268 to 269 °C	Nc1cc(-c2c(-c3cccc(Cl)c3)nc3ccc(Cl)nn23)ccn1
198 °C	Fc1ccc(-c2csc(NN=Cc3cn(Cc4ccc(Cl)cc4Cl)c4ccccc34)n2)cc1

melting point	Structure (SMILES)
148 to 151 °C	CCCCN(CCCC)CCCOc1ccc(C(=O)c2c(-c3ccccc3)cc3cc(C(=O)OCC)ccn23)cc1
124 to 127 °C	CN1CC(CO)C2c3cccc4c3c(cn4S(=O)(=O)c3ccccc3)CC21 (centres undefined)
134 to 137 °C	Nc1nc2ccccc2c2c1nc1n2C(COCc2ccc(F)cc2)COC1 (centres undefined)
163 to 166 °C	COc1ccc(-c2cc3ccc(OC)cc3n2C)cc1
143 to 151 °C	CCN1CCNC(=O)c2ccc(Nc3ncc(Cl)c(Nc4ccccc4-c4nccn4C)n3)cc21
230 to 231 °C	Cc1ccc(NC(=O)Nc2cnc3ccc(Cl)cc3c2-c2ccccc2)c(C)c1
228 °C	N#Cc1cc(=O)n(CCc2ccccc2)s1
223 to 224 °C	CC(C(=O)N1c2ccccc2C(=O)Nc2cccnc21)N1CCN(C)CC1 (centres undefined)
130 °C	C=CCOC(=O)C1=C(C)NC(C)=C(C(=O)OC)C1c1ccccc1F (centres undefined)
103 to 104 °C	CCc1nc(CC)c(CO)c(-c2ccccc2)c1C=C(C)C
99 to 100 °C	NC(=O)C(CCCCCOc1cccc([N+](=O)[O-])c1C=O)C1NCCc2ccccc21 (centres undefined)
180 to 182 °C	Cc1ccc2c(c1)c(=O)[nH]c(=O)n2CCCCN1CCC(OC(c2ccccc2)c2ccccc2)CC1
217 °C	OC1(C2CCC(c3c(F)cccc3F)=N2)C=CC(c2ccccc2)=CC1 (centres undefined)
100 °C	Cc1ccc2c(NCc3ccc(NC(=O)C4CCN(Cc5ccccc5)CC4)cc3)nc(N(C)C)nc2c1
262 to 264 °C	CCc1cc(C=Cc2nc3ccccc3o2)c(=O)[nH]c1C
217 to 218 °C	Nc1ccccc1Oc1c(C(=O)O)[nH]c2ccccc12
203 to 206 °C	O=C(O)CCc1cc2cc(Cl)ccc2n1S(=O)(=O)c1cccc(C(F)(F)F)c1
< 60 °C	O=[N+]([O-])c1cccnc1Oc1ccc2c(c1)OCC(c1ccccc1)O2 (centres undefined)
